Columns and labels:
NPM-ALK-BaF3 = molecular target: T1, NPM-ALK-BaF3 (Homo sapiens, UniProt Q9UM73); test: Growth inhibition of BaF3 cells stably transfected with kinase NPM-ALK (MTS); format: cell-based; settings: compound concentration 3.3 μM, read-out: cell growth inhibition rate, NPM-ALK
T1 construct: NPM (nuclear phosphoprotein / nucleophosmin, NPM1, P06748) fusion partner; expressed in transfected cells; host or cells: BaF3; the other entry of the earlier key: NPM1 (P06748, Nucleophosmin)
T1 sequence (Q9UM73 with tags, fused parts or gaps): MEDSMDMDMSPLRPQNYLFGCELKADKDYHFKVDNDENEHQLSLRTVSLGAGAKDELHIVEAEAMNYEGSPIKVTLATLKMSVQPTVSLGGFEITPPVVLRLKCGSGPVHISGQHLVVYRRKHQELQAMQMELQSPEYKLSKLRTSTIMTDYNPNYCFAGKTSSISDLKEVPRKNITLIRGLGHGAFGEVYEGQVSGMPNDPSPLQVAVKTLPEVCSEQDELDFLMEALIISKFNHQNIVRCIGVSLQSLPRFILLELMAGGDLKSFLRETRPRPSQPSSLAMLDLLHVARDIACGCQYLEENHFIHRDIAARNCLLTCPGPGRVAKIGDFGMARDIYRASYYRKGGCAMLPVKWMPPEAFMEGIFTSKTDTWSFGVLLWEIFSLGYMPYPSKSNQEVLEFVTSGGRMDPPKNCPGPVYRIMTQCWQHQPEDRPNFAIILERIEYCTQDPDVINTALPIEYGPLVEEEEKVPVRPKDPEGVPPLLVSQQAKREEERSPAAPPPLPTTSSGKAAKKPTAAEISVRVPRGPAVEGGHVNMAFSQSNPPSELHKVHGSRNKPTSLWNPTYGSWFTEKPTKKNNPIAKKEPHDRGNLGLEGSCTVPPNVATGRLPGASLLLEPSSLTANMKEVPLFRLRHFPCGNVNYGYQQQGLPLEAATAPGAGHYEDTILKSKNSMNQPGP
Method: (§1) The specific test method is given as follows:
(§2) 2) Reagent: MTS reaction solution (containing 2 mg/mL of MTS [3-(4,5-dimethylthiazol-2-yl)-5-(3-carboxymethoxyphenyl)-2-(4-sulfophenyl)-2H-tetra zolium, inner Salt]; 100 µg/mL PES ([…])).

EML4-ALK-BaF3 = molecular target: T2, EML4-ALK-BaF3 (Homo sapiens, UniProt Q9UM73); test: Growth inhibition of BaF3 cells stably transfected with kinase EML4-ALK (MTS); format: cell-based; settings: compound concentration 3.3 μM, read-out: cell growth inhibition rate, EML4-ALK
T2 construct: EML4 (echinoderm microtubule associated protein like 4, Q9HC35) fusion partner; expressed in transfected cells; host or cells: BaF3; the other entry of the earlier key: EML4 (Q9HC35, Echinoderm microtubule-associated protein-like 4)
T2 sequence (Q9UM73 1058-1620 limits assumed): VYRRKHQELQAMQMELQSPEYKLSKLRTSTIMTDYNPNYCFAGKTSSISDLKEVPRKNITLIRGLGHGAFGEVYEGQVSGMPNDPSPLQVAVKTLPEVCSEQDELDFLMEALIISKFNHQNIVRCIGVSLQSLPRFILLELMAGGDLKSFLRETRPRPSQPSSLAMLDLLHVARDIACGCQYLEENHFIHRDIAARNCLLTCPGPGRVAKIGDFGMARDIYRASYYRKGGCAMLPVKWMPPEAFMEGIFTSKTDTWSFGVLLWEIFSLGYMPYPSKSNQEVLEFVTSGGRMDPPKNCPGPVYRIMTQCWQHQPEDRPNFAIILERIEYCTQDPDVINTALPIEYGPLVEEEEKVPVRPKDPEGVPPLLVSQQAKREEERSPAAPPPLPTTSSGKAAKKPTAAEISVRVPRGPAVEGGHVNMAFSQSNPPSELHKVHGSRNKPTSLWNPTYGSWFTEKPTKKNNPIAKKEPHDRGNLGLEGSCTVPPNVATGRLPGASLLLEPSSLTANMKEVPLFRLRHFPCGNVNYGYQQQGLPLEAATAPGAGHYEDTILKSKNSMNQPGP
Method: as §1, §2

| inhibition at 3.3 µM (NPM-ALK-BaF3) | inhibition at 3.3 µM (EML4-ALK-BaF3) | SMILES |
| --- | --- | --- |
| 6.16% | > 99% | CNC(=O)c1cccc(F)c1Nc1nc(Nc2cc3c(cc2OC)CCN3C(=O)CN(C)C)nc2ccsc12 [IF-1] |
| 86.1% | 98.8% | COC(=O)c1ccccc1Nc1nc(Nc2cc(C)c(C3CCN(C)CC3)cc2OC(C)C)nc2ccsc12 [IE-7] |
| 86.6% | > 99% | CNC(=O)c1ccccc1Nc1nc(Nc2cc(C)c(C3CCN(C)CC3)cc2OC(C)C)nc2ccsc12 [II-8] |
| 70% | > 99% | COC(=O)c1ccccc1Sc1nc(Nc2cc(C)c(C3CCN(C)CC3)cc2OC)nc2ccsc12 [IN-7] |
| 86.7% | > 99% | COc1cc2c(cc1Nc1nc(Nc3ccccc3P(C)(C)=O)c3sccc3n1)N(C(=O)CN(C)C)CC2 [IK-1] |
| 16.2% | 99.2% | COC(=O)c1ccccc1Sc1nc(Nc2ccc(N3CCC(N4CCN(C)CC4)CC3)cc2OC)nc2ccsc12 [IN-2] |
| 46.7% | 98.4% | COC(=O)c1ccccc1Sc1nc(Nc2ccc(N3CCC(N4CCCC4)CC3)cc2OC)nc2ccsc12 [IN-6] |
| 82.5% | > 99% | COc1cc(N2CCC(N3CCCC3)CC2)ccc1Nc1nc(Nc2ccccc2P(C)(C)=O)c2sccc2n1 [IK-3] |
| 84.5% | 97.8% | COc1cc(N2CCC(N3CCCC3)CC2)ccc1Nc1nc(Nc2ccccc2NS(C)(=O)=O)c2sccc2n1 [IH-6] |
| 50.5% | 98.2% | COC(=O)c1ccccc1Nc1nc(Nc2ccc(N3CCC(O)CC3)cc2)nc2ccsc12 [IE-2] |
| 93.9% | > 99% | COC(=O)c1cccc(Nc2nc(Nc3cc(C)c(C4CCN(C)CC4)cc3OC(C)C)nc3ccsc23)c1 [ID-5] |
| 17.7% | 100% | COC(=O)c1ccccc1Sc1nc(Nc2cc3c(cc2OC)CCN3C(=O)CN(C)C)nc2ccsc12 [IN-1] |
| 90% | 99.9% | CNC(=O)c1ccccc1Nc1nc(Nc2cc(C)c(C3CCN(C)CC3)cc2OC)nc2ccsc12 [II-9] |
| 94.4% | 82.9% | COc1cc(N2CCC(N3CCN(C)CC3)CC2)ccc1Nc1nc(Nc2ccccc2S(=O)(=O)C(C)C)c2sccc2n1 [IB-2] |
| 90.7% | 98.5% | COC(=O)c1cccc(Nc2nc(Nc3ccc(N4CCC(N5CCCC5)CC4)cc3OC)nc3ccsc23)c1 [ID-4] |
| -24.1% | 99.9% | COC(=O)c1cccc(Nc2nc(Nc3cc(C)c(C4CCN(C)CC4)cc3OC)nc3ccsc23)c1 [ID-6] |
| 87.1% | > 99% | COc1cc2c(cc1Nc1nc(Nc3ccccc3[S+]([O-])C(C)C)c3sccc3n1)N(C(=O)CN(C)C)CC2 (stereo not drawn) [IJ-1] |
| 36.9% | 92.9% | CNC(=O)c1ccccc1Nc1nc(Nc2ccc(N3CCC(N4CCN(C)CC4)CC3)cc2)nc2ccsc12 [II-6] |
| 0% | 98.5% | CCOc1cc(N2CCN(C)CC2)ccc1Nc1nc(Nc2ccccc2C(=O)OC)c2sccc2n1 [IE-6] |

| inhibition at 3.3 µM (NPM-ALK-BaF3) | inhibition at 3.3 µM (EML4-ALK-BaF3) | SMILES |
| --- | --- | --- |
| 87.6% | 97.8% | COc1cc(C2CCN(C)CC2)c(C)cc1Nc1nc(Nc2cccc(NS(C)(=O)=O)c2)c2sccc2n1 [IG-4] |
| 92.7% | 99.8% | COc1cc(N2CCC(N3CCCC3)CC2)ccc1Nc1nc(Nc2ccccc2S(C)(=O)=O)c2sccc2n1 [IA-3] |
| 81.9% | > 99% | COc1cc(N2CCC(N(C)C)CC2)ccc1Nc1nc(Nc2ccccc2[S+]([O-])C(C)C)c2sccc2n1 (stereo not drawn) [IJ-6] |
| 87.6% | 94.9% | COc1cc2c(cc1Nc1nc(Nc3ccccc3S(C)(=O)=O)c3sccc3n1)N(C(=O)CN(C)C)CC2 [IA-1] |
| 6.73% | 30.9% | COC(=O)c1ccccc1Sc1nc(Nc2ccc(S(N)(=O)=O)cc2)nc2ccsc12 [IN-5] |
| 90.2% | 99.3% | COc1cc(N2CCC(N(C)C)CC2)ccc1Nc1nc(Nc2ccccc2P(C)(C)=O)c2sccc2n1 [IK-6] |
| 87.6% | 98.9% | COc1cc(N2CCC(N3CCN(C)CC3)CC2)ccc1Nc1nc(Nc2ccccc2S(C)(=O)=O)c2sccc2n1 [IA-2] |
| 12% | 87.1% | CNC(=O)c1cccc(F)c1Nc1nc(Nc2ccc(N3CCN(C)CC3)cc2OC)nc2ccsc12 [IF-3] |
| 7.09% | 98.3% | COC(=O)c1ccccc1Sc1nc(Nc2ccc(N3CCC(O)CC3)cc2)nc2ccsc12 [IN-4] |
| – | 97.1% | COc1cc2c(cc1Nc1nc(Nc3ccccc3S(=O)(=O)C(C)(C)C)c3sccc3n1)N(C(=O)CN(C)C)CC2 [IO-1] |
| 79.5% | 98.5% | CNC(=O)c1ccccc1Nc1nc(Nc2ccc(N3CCC(N4CCCC4)CC3)cc2OC)nc2ccsc12 [II-7] |
| 86% | 99.6% | COc1cc(N2CCN(C)CC2)ccc1Nc1nc(Nc2ccccc2S(C)(=O)=O)c2sccc2n1 [IA-4] |
| – | 98.3% | COc1cc2c(cc1Nc1nc(Nc3ccccc3S(=O)(=O)C(C)C)c3sccc3n1)N(C(=O)CN1CCCC1)CC2 [IB-33] |
| – | 96.3% | COc1cc(N2CCC(N3CCCC3)CC2)ccc1Nc1nc(Nc2ccccc2P(=O)(C(C)C)C(C)C)c2sccc2n1 [IR-2] |
| – | 99.2% | COc1cc(N2CCN(C)CC2)ccc1Nc1nc(Nc2ccccc2P(=O)(C(C)C)C(C)C)c2sccc2n1 [IR-3] |
| 93.6% | 96.7% | COC(=O)c1ccccc1Nc1nc(Nc2ccc(N3CCC(N4CCN(C)CC4)CC3)cc2)nc2ccsc12 [IE-4] |
| 82.8% | 100% | COc1cc(N2CCC(N3CCN(C)CC3)CC2)ccc1Nc1nc(Nc2ccccc2P(C)(C)=O)c2sccc2n1 [IK-2] |
| 77.4% | 99.3% | COc1cc(N2CCN(C)CC2)ccc1Nc1nc(Nc2ccccc2P(C)(C)=O)c2sccc2n1 [IK-4] |
| 12.3% | 98.8% | COC(=O)c1ccccc1Sc1nc(Nc2ccc(N3CCN(C)CC3)cc2OC)nc2ccsc12 [IN-3] |

| inhibition at 3.3 µM (NPM-ALK-BaF3) | inhibition at 3.3 µM (EML4-ALK-BaF3) | SMILES |
| --- | --- | --- |
| – | 103% | CCP(=O)(CC)c1ccccc1Nc1nc(Nc2ccc(N3CCN(C)CC3)cc2)nc2ccsc12 [IS-5] |
| 87.6% | 99% | COC(=O)c1ccccc1Nc1nc(Nc2ccc(N3CCC(N4CCCC4)CC3)cc2OC)nc2ccsc12 [IE-5] |
| – | 98.2% | CCP(=O)(CC)c1ccccc1Nc1nc(Nc2ccc(N3CCC(N4CCCC4)CC3)cc2OC)nc2ccsc12 [IS-2] |
| 87.7% | 99.3% | COc1cc(N2CCC(N3CCN(C)CC3)CC2)ccc1Nc1nc(Nc2ccccc2[S+]([O-])C(C)C)c2sccc2n1 (stereo not drawn) [IJ-2] |
| – | 98.4% | COc1cc(N2CCC(N3CCN(C)CC3)CC2)ccc1Nc1nc(Nc2ccccc2P(=O)(C(C)C)C(C)C)c2sccc2n1 [IR-4] |
| 88.8% | > 99% | COc1cc(N2CCN(C)CC2)ccc1Nc1nc(Nc2ccccc2[S+]([O-])C(C)C)c2sccc2n1 (stereo not drawn) [IJ-4] |
| – | 96.8% | COc1cc(F)c(NC(=O)CN(C)C)cc1Nc1nc(Nc2ccccc2S(=O)(=O)C(C)C)c2sccc2n1 [IB-35] |
| – | 97.5% | COc1cc2c(cc1Nc1nc(Nc3ccccc3P(=O)(C(C)C)C(C)C)c3sccc3n1)N(C(=O)CN(C)C)CC2 [IR-1] |
| 2.77% | 3.41% | CNC(=O)c1cccc(F)c1Nc1nc(Nc2ccc(N3CCC(N4CCN(C)CC4)CC3)cc2OC)nc2ccsc12 [IF-2] |
| – | 96.9% | COc1cc2c(cc1Nc1nc(Nc3ccccc3C(=O)N(C)C)c3sccc3n1)N(C(=O)CN(C)C)CC2 [IQ-1] |
| – | 99.1% | COc1cc(N2CCC(N(C)C)CC2)ccc1Nc1nc(Nc2ccccc2C(=O)NC(C)C)c2sccc2n1 [IP-3] |
| 10.9% | > 99% | COc1cc(N2CCC(N3CCCC3)CC2)ccc1Nc1nc(Nc2cccc(NS(C)(=O)=O)c2)c2sccc2n1 [IG-5] |
| 85.5% | 96.7% | COC(=O)c1ccccc1Nc1nc(Nc2ccc(N3CCN(C)CC3)cc2OC)nc2ccsc12 [IE-3] |
| 84.2% | 98% | COC(=O)c1ccccc1Nc1nc(Nc2cc(C)c(C3CCN(C)CC3)cc2OC)nc2ccsc12 [IE-8] |
| 84.8% | 99.9% | COc1cc(N2CCC(N3CCCC3)CC2)ccc1Nc1nc(Nc2ccccc2[S+]([O-])C(C)C)c2sccc2n1 (stereo not drawn) [IJ-3] |
| 84.2% | 98% | COc1cc(C2CCN(C)CC2)c(C)cc1Nc1nc(Nc2ccccc2NS(C)(=O)=O)c2sccc2n1 [IH-5] |
| 69.5% | 97% | COC(=O)c1ccccc1Nc1nc(Nc2ccc(N3CCC(N4CCN(C)CC4)CC3)cc2OC)nc2ccsc12 [IE-1] |
| 85.5% | 99.6% | COc1cc(C2CCN(C)CC2)c(C)cc1Nc1nc(Nc2ccccc2P(C)(C)=O)c2sccc2n1 [IK-5] |
| – | 99.5% | CCP(=O)(CC)c1ccccc1Nc1nc(Nc2ccc(N3CCC(N(C)C)CC3)cc2OC)nc2ccsc12 [IS-6] |
